Values belong to the molecule of their own block, whether it stands above or below them. Calls of active or inactive are those of the source. The rule behind the calls is not given here.
Experiments:
A549 [1] = experiment: Antiproliferation activity against human A549 cells assessed as reduction in cell viability measured after 72 hrs by MTT assay; type: functional, cell-based; conditions: A549, 72 h
NCI-H1975 [2] = experiment: Antiproliferation activity against human NCI-H1975 cells harboring EGFR T790M/L858R mutation assessed as reduction in cell viability measured after 72 hrs by MTT assay; type: functional, cell-based; conditions: NCI-H1975, 72 h
HeLa = experiment: Antiproliferation activity against human HeLa cells assessed as reduction in cell viability measured after 72 hrs by MTT assay; type: functional, cell-based
MCF7 = experiment: Antiproliferation activity against human MCF7 cells assessed as reduction in cell viability measured after 72 hrs by MTT assay; type: functional, cell-based; conditions: MCF7, 72 h
L02 = experiment: Cytotoxicity against human L02 cells assessed as reduction in cell viability measured after 72 hrs by MTT assay; type: cell-based; conditions: L02, 72 h
[3] = Selectivity index, ratio of IC50 for human L02 cells to IC50 for human A549 cells assessed as reduction in cell viability measured after 72 hrs by MTT assay; type: toxicity; conditions: L02 cells versus A549 cells, read-out: Ratio IC50
[4] = biological target: Epidermal growth factor receptor (Homo sapiens, UniProt P00533); experiment: Inhibition of wild type EGFR (unknown origin) using FAM-labelled peptide as substrate incubated for 10 mins in presence of ATP by Kinase Glo luminescence assay
[5] = biological target: Epidermal growth factor receptor (Homo sapiens, UniProt P00533, T790M); experiment: Inhibition of EGFR T790M mutant (unknown origin) using FAM-labelled peptide as substrate incubated for 10 mins fin presence of ATP by Kinase Glo luminescence assay
Homo sapiens = species: Homo sapiens; experiment: Inhibition of PI3K (unknown origin) at 1 uM relative to control
[6] = biological target: Vascular endothelial growth factor receptor 2 (Homo sapiens) (UniProt P35968); experiment: Inhibition of KDR (unknown origin) at 1 uM relative to control
[7] = biological target: Hepatocyte growth factor receptor (Homo sapiens) (UniProt P08581); experiment: Inhibition of C-MET (unknown origin) at 1 uM relative to control
[8] = biological target: Epidermal growth factor receptor (Homo sapiens, UniProt P00533, L858R/T790M); experiment: Inhibition of EGFR T790M/L858R mutant (unknown origin) using FAM-labelled peptide as substrate incubated for 10 mins in presence of ATP by Kinase Glo luminescence assay
[9] = biological target: Serine/threonine-protein kinase mTOR (Homo sapiens) (UniProt P42345); experiment: Inhibition of mTOR (unknown origin) at 1 uM relative to control
NCI-H1975 [10] = experiment: Induction of morphological changes in human H1975 cells assessed as chromatin shrinkage and apoptotic body formation at 0.01 to 0.10 uM incubated for 6 hrs by AO staining-based fluorescent microscopic analysis; type: functional, cell-based; conditions: dose microM 0.01-0.10, time 6.0 hrs
NCI-H1975 [11] = experiment: Induction of morphological changes in human H1975 cells assessed as chromatin agglutination in nucleus at 0.01 to 0.10 uM incubated for 6 hrs by Hoechst33258 staining-based fluorescent microscopic analysis; type: functional, cell-based; conditions: dose microM 0.01-0.10, time 6.0 hrs
NCI-H1975 [12] = experiment: Induction of morphological changes in human H1975 cells assessed as dense nuclei staining at 0.01 to 0.10 uM incubated for 6 hrs by Hoechst 33258 staining-based fluorescent microscopic analysis; type: functional, cell-based; conditions: dose microM 0.01-0.10, time 6.0 hrs
NCI-H1975 [13] = experiment: Induction of apoptosis in human H1975 cells assessed as late apoptotic cells at 1 to 10 uM incubated for 48 hrs Annexin V-FITC staining based flow cytometric analysis; type: functional, cell-based; conditions: dose microM 1-10, time […]
NCI-H1975 [14] = experiment: Induction of apoptosis in human H1975 cells assessed as necrotic cells at 1 uM incubated for 48 hrs Annexin V-FITC staining based flow cytometric analysis (reference value: 0.08 %); type: functional
NCI-H1975 [15] = experiment: Induction of apoptosis in human H1975 cells assessed as late apoptotic cells at 1 uM incubated for 48 hrs Annexin V-FITC staining based flow cytometric analysis (reference value: 1.77 %); type: functional
NCI-H1975 [16] = experiment: Induction of apoptosis in human H1975 cells assessed as live cells at 1 uM incubated for 48 hrs Annexin V-FITC staining based flow cytometric analysis (reference value: 96.09 %); type: functional
NCI-H1975 [17] = experiment: Induction of apoptosis in human H1975 cells assessed as early apoptotic cells at 1 uM incubated for 48 hrs Annexin V-FITC staining based flow cytometric analysis (reference value: 2.06 %); type: functional
NCI-H1975 [18] = experiment: Induction of apoptosis in human H1975 cells assessed as necrotic cells at 5 uM incubated for 48 hrs Annexin V-FITC staining based flow cytometric analysis (reference value: 0.08 %); type: functional
NCI-H1975 [19] = experiment: Induction of apoptosis in human H1975 cells assessed as late apoptotic cells at 5 uM incubated for 48 hrs Annexin V-FITC staining based flow cytometric analysis (reference value: 1.77 %); type: functional
NCI-H1975 [20] = experiment: Induction of apoptosis in human H1975 cells assessed as live cells at 5 uM incubated for 48 hrs Annexin V-FITC staining based flow cytometric analysis (reference value: 96.09 %); type: functional
NCI-H1975 [21] = experiment: Induction of apoptosis in human H1975 cells assessed as early apoptotic cells at 5 uM incubated for 48 hrs Annexin V-FITC staining based flow cytometric analysis (reference value: 2.06 %); type: functional
NCI-H1975 [22] = experiment: Induction of apoptosis in human H1975 cells assessed as necrotic cells at 10 uM incubated for 48 hrs Annexin V-FITC staining based flow cytometric analysis (reference value: 0.08 %); type: functional
NCI-H1975 [23] = experiment: Induction of apoptosis in human H1975 cells assessed as late apoptotic cells at 10 uM incubated for 48 hrs Annexin V-FITC staining based flow cytometric analysis (reference value: 1.77 %); type: functional
NCI-H1975 [24] = experiment: Induction of apoptosis in human H1975 cells assessed as live cells at 10 uM incubated for 48 hrs Annexin V-FITC staining based flow cytometric analysis (reference value: 96.09 %); type: functional
NCI-H1975 [25] = experiment: Induction of apoptosis in human H1975 cells assessed as early apoptotic cells at 10 uM incubated for 48 hrs Annexin V-FITC staining based flow cytometric analysis (reference value: 2.06 %); type: functional
A549 [26] = experiment: Cell cycle arrest in human A549 cells assessed as accumulation at G0/G1 phase at 1 uM incubated for 48 hrs […] staining based flow cytometric analysis (reference value: 74.69 %); type: functional
A549 [27] = experiment: Cell cycle arrest in human A549 cells assessed as accumulation at S phase at 1 uM incubated for 48 hrs […] staining based flow cytometric analysis (reference value: 22.64 %); type: functional
A549 [28] = experiment: Cell cycle arrest in human A549 cells assessed as accumulation at G2/M phase at 1 uM incubated for 48 hrs […] staining based flow cytometric analysis (reference value: 2.67 %); type: functional
A549 [29] = experiment: Cell cycle arrest in human A549 cells assessed as accumulation at G0/G1 phase at 5 uM incubated for 48 hrs […] staining based flow cytometric analysis (reference value: 74.69 %); type: functional
A549 [30] = experiment: Cell cycle arrest in human A549 cells assessed as accumulation at S phase at 5 uM incubated for 48 hrs […] staining based flow cytometric analysis (reference value: 22.64 %); type: functional
A549 [31] = experiment: Cell cycle arrest in human A549 cells assessed as accumulation at G2/M phase at 5 uM incubated for 48 hrs […] staining based flow cytometric analysis (reference value: 2.67 %); type: functional
A549 [32] = experiment: Cell cycle arrest in human A549 cells assessed as accumulation at G0/G1 phase at 10 uM incubated for 48 hrs […] staining based flow cytometric analysis (reference value: 74.69 %); type: functional
A549 [33] = experiment: Cell cycle arrest in human A549 cells assessed as accumulation at S phase at 10 uM incubated for 48 hrs […] staining based flow cytometric analysis (reference value: 22.64 %); type: functional
A549 [34] = experiment: Cell cycle arrest in human A549 cells assessed as accumulation at G2/M phase at 10 uM incubated for 48 hrs […] staining based flow cytometric analysis (reference value: 2.67 %); type: functional
A549 [35] = experiment: Cell cycle arrest in human A549 cells assessed as accumulation at G2/M phase at 1 to 10 uM incubated for 48 hrs […] staining based flow cytometric analysis; type: functional; conditions: dose microM 1-10, time […]

Chain of Epidermal growth factor receptor (Homo sapiens, UniProt P00533, T790M) (P00533 25-1210 T790M limits assumed): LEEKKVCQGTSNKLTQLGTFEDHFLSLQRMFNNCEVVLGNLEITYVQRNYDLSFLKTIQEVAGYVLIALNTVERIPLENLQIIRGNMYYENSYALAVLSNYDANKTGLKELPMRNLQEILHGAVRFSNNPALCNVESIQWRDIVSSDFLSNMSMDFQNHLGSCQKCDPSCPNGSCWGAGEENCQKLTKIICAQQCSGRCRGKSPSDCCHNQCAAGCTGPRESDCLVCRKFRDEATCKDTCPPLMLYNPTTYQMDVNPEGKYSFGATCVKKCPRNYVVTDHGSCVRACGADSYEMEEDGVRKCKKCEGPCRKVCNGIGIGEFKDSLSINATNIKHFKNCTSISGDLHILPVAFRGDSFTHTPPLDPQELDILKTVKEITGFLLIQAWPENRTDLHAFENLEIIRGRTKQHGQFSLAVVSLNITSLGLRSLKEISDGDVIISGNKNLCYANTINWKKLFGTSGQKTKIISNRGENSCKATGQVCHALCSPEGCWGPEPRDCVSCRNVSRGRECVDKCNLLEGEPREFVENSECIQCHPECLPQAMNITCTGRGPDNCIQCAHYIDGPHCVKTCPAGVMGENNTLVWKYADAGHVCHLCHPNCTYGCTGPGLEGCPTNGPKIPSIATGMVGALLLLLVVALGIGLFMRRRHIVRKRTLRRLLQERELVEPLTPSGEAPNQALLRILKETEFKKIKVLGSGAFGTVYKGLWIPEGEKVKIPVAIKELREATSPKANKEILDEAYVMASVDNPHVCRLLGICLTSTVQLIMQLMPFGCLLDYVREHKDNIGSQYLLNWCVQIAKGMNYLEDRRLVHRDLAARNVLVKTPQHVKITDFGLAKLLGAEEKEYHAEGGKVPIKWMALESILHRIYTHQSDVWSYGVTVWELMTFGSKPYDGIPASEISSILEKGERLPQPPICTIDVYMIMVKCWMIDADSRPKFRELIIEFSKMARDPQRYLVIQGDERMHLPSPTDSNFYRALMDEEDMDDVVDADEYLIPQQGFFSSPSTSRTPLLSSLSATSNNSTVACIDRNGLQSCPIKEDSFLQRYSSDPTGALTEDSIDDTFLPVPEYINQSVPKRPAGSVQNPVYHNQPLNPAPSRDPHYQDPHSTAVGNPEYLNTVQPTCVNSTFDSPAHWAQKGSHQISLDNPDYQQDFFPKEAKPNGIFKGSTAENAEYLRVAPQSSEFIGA
Chain of Vascular endothelial growth factor receptor 2 (Homo sapiens) (P35968 whole entry): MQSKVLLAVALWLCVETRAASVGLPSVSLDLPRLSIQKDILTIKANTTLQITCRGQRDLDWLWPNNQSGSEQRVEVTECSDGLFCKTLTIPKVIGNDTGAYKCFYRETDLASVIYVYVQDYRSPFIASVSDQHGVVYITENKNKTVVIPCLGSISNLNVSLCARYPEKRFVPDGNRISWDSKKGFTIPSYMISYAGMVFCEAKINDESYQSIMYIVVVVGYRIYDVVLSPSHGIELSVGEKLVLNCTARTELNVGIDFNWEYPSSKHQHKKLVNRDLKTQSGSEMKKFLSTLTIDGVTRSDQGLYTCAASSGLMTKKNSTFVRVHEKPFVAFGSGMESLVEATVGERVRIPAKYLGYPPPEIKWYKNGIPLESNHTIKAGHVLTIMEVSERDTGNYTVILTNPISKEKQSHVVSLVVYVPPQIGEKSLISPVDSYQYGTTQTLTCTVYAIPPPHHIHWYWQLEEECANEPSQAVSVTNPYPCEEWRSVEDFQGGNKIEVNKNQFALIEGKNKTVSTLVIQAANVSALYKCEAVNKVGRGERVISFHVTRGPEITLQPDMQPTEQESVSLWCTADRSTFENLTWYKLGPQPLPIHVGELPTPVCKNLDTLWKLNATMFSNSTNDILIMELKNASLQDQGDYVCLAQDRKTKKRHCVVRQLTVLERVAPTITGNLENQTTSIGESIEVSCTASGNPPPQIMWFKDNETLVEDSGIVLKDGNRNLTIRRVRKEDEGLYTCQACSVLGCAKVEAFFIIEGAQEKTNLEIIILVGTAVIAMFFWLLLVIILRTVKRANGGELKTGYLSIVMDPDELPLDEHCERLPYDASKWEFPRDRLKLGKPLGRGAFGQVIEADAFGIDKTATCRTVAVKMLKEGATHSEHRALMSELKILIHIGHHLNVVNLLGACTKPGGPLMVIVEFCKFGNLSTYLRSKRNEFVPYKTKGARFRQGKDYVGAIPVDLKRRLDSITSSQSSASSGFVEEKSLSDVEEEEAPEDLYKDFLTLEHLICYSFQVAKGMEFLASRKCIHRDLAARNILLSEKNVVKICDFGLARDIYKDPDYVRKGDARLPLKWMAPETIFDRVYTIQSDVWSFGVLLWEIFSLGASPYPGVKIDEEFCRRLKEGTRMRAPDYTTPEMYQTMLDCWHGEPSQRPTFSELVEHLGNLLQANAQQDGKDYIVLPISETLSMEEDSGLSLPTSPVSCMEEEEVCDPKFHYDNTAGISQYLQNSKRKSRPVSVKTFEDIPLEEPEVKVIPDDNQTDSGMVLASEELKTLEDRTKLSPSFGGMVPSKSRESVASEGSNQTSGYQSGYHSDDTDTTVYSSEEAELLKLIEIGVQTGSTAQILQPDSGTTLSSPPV
Chain of Epidermal growth factor receptor (Homo sapiens, UniProt P00533, L858R/T790M) (P00533 25-1210 T790M/L858R limits assumed): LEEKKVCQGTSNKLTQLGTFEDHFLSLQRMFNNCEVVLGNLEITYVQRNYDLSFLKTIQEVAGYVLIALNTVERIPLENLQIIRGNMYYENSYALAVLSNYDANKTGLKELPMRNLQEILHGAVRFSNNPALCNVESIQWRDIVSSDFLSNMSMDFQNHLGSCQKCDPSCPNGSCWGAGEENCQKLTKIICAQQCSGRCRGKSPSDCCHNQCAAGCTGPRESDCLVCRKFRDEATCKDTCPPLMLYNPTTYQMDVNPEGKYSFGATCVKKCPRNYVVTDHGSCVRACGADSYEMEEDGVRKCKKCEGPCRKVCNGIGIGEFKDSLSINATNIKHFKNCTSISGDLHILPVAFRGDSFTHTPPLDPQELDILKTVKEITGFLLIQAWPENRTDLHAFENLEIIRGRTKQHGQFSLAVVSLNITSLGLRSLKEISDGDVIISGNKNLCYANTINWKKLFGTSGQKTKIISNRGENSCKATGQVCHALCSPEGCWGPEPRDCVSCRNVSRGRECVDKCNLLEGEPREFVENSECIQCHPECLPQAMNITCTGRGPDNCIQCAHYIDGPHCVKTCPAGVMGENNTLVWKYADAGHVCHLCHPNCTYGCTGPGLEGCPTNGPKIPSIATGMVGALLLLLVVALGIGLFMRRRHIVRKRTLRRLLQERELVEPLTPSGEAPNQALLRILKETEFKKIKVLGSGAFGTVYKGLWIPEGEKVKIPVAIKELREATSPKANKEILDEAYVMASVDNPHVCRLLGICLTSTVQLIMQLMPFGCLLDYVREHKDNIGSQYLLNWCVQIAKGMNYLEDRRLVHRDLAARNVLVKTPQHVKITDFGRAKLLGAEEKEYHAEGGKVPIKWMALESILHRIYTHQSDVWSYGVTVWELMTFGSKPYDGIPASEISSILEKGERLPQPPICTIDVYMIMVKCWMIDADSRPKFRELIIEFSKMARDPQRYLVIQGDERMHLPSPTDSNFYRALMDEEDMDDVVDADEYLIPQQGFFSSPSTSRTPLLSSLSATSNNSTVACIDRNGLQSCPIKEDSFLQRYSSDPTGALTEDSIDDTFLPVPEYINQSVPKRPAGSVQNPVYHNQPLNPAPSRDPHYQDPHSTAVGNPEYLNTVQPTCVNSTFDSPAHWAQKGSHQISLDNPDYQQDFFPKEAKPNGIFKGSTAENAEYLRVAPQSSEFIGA
Chain of Epidermal growth factor receptor (Homo sapiens, UniProt P00533) (P00533 whole entry): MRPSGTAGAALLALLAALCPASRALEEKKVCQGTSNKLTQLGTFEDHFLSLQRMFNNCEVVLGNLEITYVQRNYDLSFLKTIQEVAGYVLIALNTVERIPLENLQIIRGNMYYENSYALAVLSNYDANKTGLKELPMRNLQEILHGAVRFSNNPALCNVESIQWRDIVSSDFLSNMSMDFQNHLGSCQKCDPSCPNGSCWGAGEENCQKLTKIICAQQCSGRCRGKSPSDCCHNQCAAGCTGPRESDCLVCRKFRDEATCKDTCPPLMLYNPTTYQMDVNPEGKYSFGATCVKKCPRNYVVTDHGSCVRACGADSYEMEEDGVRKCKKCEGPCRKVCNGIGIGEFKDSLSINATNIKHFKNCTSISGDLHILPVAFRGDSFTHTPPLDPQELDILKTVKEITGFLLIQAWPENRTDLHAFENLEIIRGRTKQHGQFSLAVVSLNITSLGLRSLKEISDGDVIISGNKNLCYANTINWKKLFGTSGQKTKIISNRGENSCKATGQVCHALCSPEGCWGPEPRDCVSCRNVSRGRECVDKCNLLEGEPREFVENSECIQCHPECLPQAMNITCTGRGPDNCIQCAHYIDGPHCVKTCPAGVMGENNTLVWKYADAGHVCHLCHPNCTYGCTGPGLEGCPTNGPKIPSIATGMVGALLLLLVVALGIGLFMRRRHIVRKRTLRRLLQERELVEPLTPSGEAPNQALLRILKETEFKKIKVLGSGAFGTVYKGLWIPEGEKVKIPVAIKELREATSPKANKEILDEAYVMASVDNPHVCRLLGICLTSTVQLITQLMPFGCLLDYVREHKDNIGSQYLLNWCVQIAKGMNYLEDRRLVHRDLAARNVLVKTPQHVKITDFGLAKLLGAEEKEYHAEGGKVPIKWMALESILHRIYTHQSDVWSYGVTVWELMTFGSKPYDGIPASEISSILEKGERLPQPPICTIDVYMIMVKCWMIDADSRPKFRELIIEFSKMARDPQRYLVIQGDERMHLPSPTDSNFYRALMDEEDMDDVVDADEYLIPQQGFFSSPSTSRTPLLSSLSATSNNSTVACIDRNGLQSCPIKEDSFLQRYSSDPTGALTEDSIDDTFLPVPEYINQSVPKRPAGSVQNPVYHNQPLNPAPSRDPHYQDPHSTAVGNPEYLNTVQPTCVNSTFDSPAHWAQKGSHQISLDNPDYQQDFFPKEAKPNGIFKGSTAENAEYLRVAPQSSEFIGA

Compound: Oc1cccc(-c2nc(N3CCOCC3)c3oc4ncccc4c3n2)c1
inhibition (Homo sapiens): 99.8% | inhibition [6]: 2.4%

Compound: CCC/C=C/C(=O)Nc1cccc(Oc2nc(Nc3ccn(C)n3)nc3c2CSCC3)c1
IC50 (A549 [1]): 8.19 µM | IC50 (NCI-H1975 [2]): 13.6 µM | IC50 (HeLa): 17 µM | IC50 (MCF7): 22.6 µM | IC50 (L02): > 50 µM | selectivity ratio at 72 h [3]: > 6.1 | IC50 [4]: > 1000 nM | IC50 [5]: > 1000 nM

Compound: C/C=C/C(=O)Nc1cccc(Oc2nc(Nc3cccc(OC)c3)nc3c2CSCC3)c1
IC50 (A549 [1]): 21.1 µM | IC50 (NCI-H1975 [2]): 12.5 µM | IC50 (HeLa): 13.8 µM | IC50 (MCF7): 23.4 µM | IC50 (L02): > 50 µM | selectivity ratio at 72 h [3]: > 2.37

Compound: C=CC(=O)Nc1cccc(Oc2nc(Nc3ccc(N4CCN(C)CC4)cc3)nc3ccsc23)c1 [OLMUTINIB]
inhibition (Homo sapiens): inactive | inhibition [9]: inactive | inhibition [7]: 7.1% | inhibition [6]: inactive | Activity (NCI-H1975 [18]): 0.34% | Activity (NCI-H1975 [19]): 10.76% | Activity (NCI-H1975 [20]): 84.27% | Activity (NCI-H1975 [21]): 4.63% | Activity (A549 [29]): 76.63% | Activity (A549 [30]): 14.65% | Activity (A549 [31]): 8.72%

Now from value to molecule, other results behind:

IC50 (A549 [1]): 8.04 µM | IC50 (NCI-H1975 [2]): 13.9 µM | IC50 (HeLa): 16.5 µM | IC50 (MCF7): 21.1 µM | IC50 [4]: > 1000 nM | IC50 [5]: > 1000 nM
Compound: C/C=C/C(=O)Nc1cccc(Oc2nc(Nc3ccc(OC)nc3)nc3c2CSCC3)c1
IC50 (L02): > 50 µM | selectivity ratio at 72 h [3]: > 6.22

IC50 (A549 [1]): 6.86 µM | IC50 (NCI-H1975 [2]): 4.59 µM | IC50 (HeLa): 34.9 µM | IC50 (MCF7): 21.7 µM | inhibition (Homo sapiens): 44.3% | inhibition [7]: 2.4% | inhibition [6]: -0.9% | IC50 [4]: > 1000 nM | IC50 [5]: > 1000 nM | IC50 [8]: > 1000 nM
Compound: C=CC(=O)Nc1cccc(Oc2nc(Nc3cccc(C#N)c3)nc3c2CSCC3)c1
IC50 (L02): > 50 µM | selectivity ratio at 72 h [3]: > 7.29

IC50 (A549 [1]): 5.79 µM | IC50 (NCI-H1975 [2]): 10.8 µM | IC50 (HeLa): 7.22 µM | IC50 (MCF7): 15.3 µM | inhibition (Homo sapiens): 62.2% | inhibition [9]: 10% | inhibition [7]: 3.6% | IC50 [4]: > 1000 nM | IC50 [5]: > 1000 nM | IC50 [8]: > 1000 nM
Compound: CCC/C=C/C(=O)Nc1cccc(Oc2nc(Nc3cccc(C#N)c3)nc3c2CSCC3)c1
IC50 (L02): > 50 µM | selectivity ratio at 72 h [3]: > 8.64

IC50 (A549 [1]): 4.22 µM | IC50 (NCI-H1975 [2]): 2.19 µM | IC50 (HeLa): 20.9 µM | IC50 (MCF7): 11.7 µM | inhibition (Homo sapiens): 48.1% | inhibition [9]: -1.2% | inhibition [7]: 0.5% | inhibition [6]: 3.9% | IC50 [4]: > 1000 nM | IC50 [5]: 542 nM | IC50 [8]: 132 nM
Compound: C=CC(=O)Nc1cccc(Oc2nc(Nc3ccc(OC)cc3)nc3c2CSCC3)c1
IC50 (L02): > 50 µM | selectivity ratio at 72 h [3]: > 11.8 | Activity (NCI-H1975 [10]): Active | Activity (NCI-H1975 [11]): Active | Activity (NCI-H1975 [12]): Active | Activity (NCI-H1975 [13]): Dose-dependent effect | Activity (NCI-H1975 [14]): 0.85% | Activity (NCI-H1975 [15]): 8.23% | Activity (NCI-H1975 [16]): 87.16% | Activity (NCI-H1975 [17]): 3.76% | Activity (NCI-H1975 [18]): 0.6% | Activity (NCI-H1975 [19]): 10.7% | Activity (NCI-H1975 [20]): 81.2% | Activity (NCI-H1975 [21]): 7.5% | Activity (NCI-H1975 [22]): 0.58% | Activity (NCI-H1975 [23]): 15.46% | Activity (NCI-H1975 [24]): 78.76% | Activity (NCI-H1975 [25]): 5.2% | Activity (A549 [26]): 71.16% | Activity (A549 [27]): 20.22% | Activity (A549 [28]): 8.62% | Activity (A549 [29]): 74.87% | Activity (A549 [30]): 14.44% | Activity (A549 [31]): 10.69% | Activity (A549 [32]): 62.57% | Activity (A549 [33]): 14.2% | Activity (A549 [34]): 23.23% | Activity (A549 [35]): Dose-dependent effect
